Read-outs that look alike come from different tables or passages of the source.
Key:
[1] = Example B: precipitate formation of C-ethyl pyrogallarene colloid (from saturated methanol) after adding metal chlorides
From the text: Some metals required more time for a precipitate to form.

[2] = Example C: C-ethyl pyrogallol[4]arene colloid (from acetone stock) after adding chloride salts
Protocol: Upon dispensing this aliquot the aqueous solutions were colorless white colloids. Various chloride salts were added to the solution including […], Tungsten(IV) chloride, Strontium chloride, Titanium chloride, Zirconyl (IV) chloride octahydrate, Aluminum chloride, and Hafnium chloride. All metal salts were colorless except Tungsten(IV) chloride, which was light green, and Titanium chloride, which was a yellow solution. […] All other colloids appeared unchanged immediately after the addition of the metal. This may be a result of no chelation or slow reaction kinetics for the chelated complex. Finally, one additional salt, colorless Gadolinium Chloride, was tested. […] As stated previously, various examples may indicate chelation and sequestration by pyrogallarenes on a PPM level, owing to the solubility of various chloride salts. For example, PbCl2 is very poorly soluble in water.

[3] = Protocol: A stock solution of was made of 100 mg of purified C-ethyl pyrogallol[4]arene dissolved in 20 mL of acetone. 1 mL aliquots of this stock solution were dispensed into vials containing 20 mL of water. Sample one contained TDS of 330, Ca of 30 ppm, Mg of 26 ppm, K of 1 ppm, Si of 15 ppm, bicarbonate of 360 ppm, Pb of <0.001, and a pH of 7.2. Sample two contained TDS of 222, Ca of 18 ppm, Mg of 15 ppm, K of 5.3 ppm, Si of 93 ppm, bicarbonate of 152 ppm, and a pH of 7.7. Sample three contained TDS of 44, Ca of 5 ppm, Mg of 1 ppm, K of 0 ppm, bicarbonate of 20 ppm, and a pH of 7.8.
[4] = Solid state contact of nearly dry pyrogallarenes with stainless steel spatula; settings: freshly-synthesized
From the text: Pyrogallarenes, including C-methyl Pyrogallol[4]arene, C-ethyl Pyrogallol[4]arene, and C-propyl pyrogallol[4]arene, have a high affinity for metals, even in a homogeneous solid state reaction. For example, a stainless steel spatula in contact with these freshly-synthesized and not completely dry (nearly dry) pyrogallarenes results in a color shift from white to blue where the spatula came in contact with the pyrogallol[4]arene. This example may illustrate, as in previous examples, that a chelation reaction has occurred.

[5] = Heterogeneous chelation: solid pyrogallol[4]arene dispensed into unpurified aqueous solution
Remark: listed apart in the source
[6] = Example A: colour of C-propyl pyrogallol[4]arene colloid in deionized water after adding metal chloride salts (chelation indicator)
Protocol: A stock solution of was made of 400 mg of purified C-propyl pyrogallol[4]arene dissolved in 20 mL of acetone. […] Upon dispensing this aliquot the aqueous solutions were a colorless white colloid. The colloid appeared to be somewhat translucent. Upon dispensing NaCl into one colorless colloid the color was unchanged. Then various chloride salts of metals were added to colorless C-propyl pyrogallol[4]arene colloids. Upon adding ZnCl2 the colloid turned light brown. Upon adding MgCl2 the colloid turned pink. Upon adding Fe(III)Cl3 the colloid turned grey. Upon adding Cu(I)Cl the colloid turned brown. Upon adding CaCl2 the colloid turned pink. Upon adding Cr(III)Cl3 the colloid turned green. Upon adding BaCl2.2H2O the colloid turned pink. Upon adding MnCl2 the colloid turned salmon. Upon adding NiCl2 the colloid turned salmon.
In Example A, half of the metal salts, ZnCl2, MgCl2, CaCl2, and BaClz.2H2O, were colorless in their solid form, before adding them to the colloid. Pyrogallarene chelation is evident as a colorless salts are added to a colorless colloid and varying colors result. Five of the salts were colored in their solid form. […] Although Fe(III)Cl3 was brownish red in its solid form the resulting colloid solution was grey. Cu(I)Cl was green in its solid form but the resulting colloid solution was brown. NiCl2 was green in its solid form but the resulting colloid solution was pink.

[7] = Resilience of chelated precipitate at high temperature; format: physicochemical
Protocol: Unlike some solids where solubility increases rapidly with increasing temperature the pyrogallarene chelated precipitate is resilient at high temperature. […] A chelate made from C-propyl pyrogallol[4]arene and a variety of metals is also undissolved at 80° C. […] However, heterogeneous pyrogallol[4]arene chelation complexes appear to dissolve minimally into aqueous solutions, limited by a low Ksp as discussed above.

## CCC1c2cc(c(O)c(O)c2O)C(CC)c2cc(c(O)c(O)c2O)C(CC)c2cc(c(O)c(O)c2O)C(CC)c2cc1c(O)c(O)c2O (centres unmarked) [C-ethyl pyrogallol[4]arene]
[1]; BaClz.2H2O, 24 hours later
  precipitate formed: white precipitate
[1]; CaCl2 added, immediately
  precipitate formed: blue precipitate
[1]; Cr(III)Cl3, 24 hours later
  precipitate formed: white precipitate
[1]; Cu(I)Cl, 24 hours later
  precipitate formed: grey precipitate
[1]; NiClz, 24 hours later
  precipitate formed: white precipitate
[1]; PbCl2 added, immediately
  precipitate formed: blue precipitate
[1]; ZnCl2 added, immediately
  precipitate formed: blue precipitate
[2]; Aluminum chloride added, immediately after addition
  observation on colloid: unchanged
[2]; Gadolinium Chloride added
  observation on colloid: purple precipitate
[2]; Hafnium chloride added
  observation on colloid: grey precipitate
[2]; Strontium chloride added
  observation on colloid: white precipitate
[2]; Titanium chloride added, immediately after addition
  observation on colloid: unchanged
[2]; Tungsten(IV) chloride added, immediately after addition
  observation on colloid: unchanged
[2]; Yttrium(II) chloride hydrate added
  observation on colloid: purple precipitate
[2]; Zirconyl (IV) chloride octahydrate added
  observation on colloid: clear grey solution
[3]; Sample four: pH 9.4
  observation on water sample: pink colored solution
[3]; Sample one: TDS 330, Ca 30 ppm, Mg 26 ppm, pH 7.2
  observation on water sample: dense blue precipitate
[3]; Sample three: TDS 44, Ca 5 ppm, Mg 1 ppm, pH 7.8, several days
  observation on water sample: did not produce a precipitate
[3]; Sample two: TDS 222, Ca 18 ppm, Mg 15 ppm, pH 7.7, over a few minutes
  observation on water sample: diffuse blue precipitate
[4]
  color shift where spatula came in contact: white to blue
[5]; solid in unpurified aqueous solution
  dissolution of solid: almost completely undissolved
[5]; solid, colorless compound in unpurified aqueous solution
  shift of absorbance colour of solid: blue
other
  solubility in water: mostly insoluble

## CC1c2cc(c(O)c(O)c2O)C(C)c2cc(c(O)c(O)c2O)C(C)c2cc(c(O)c(O)c2O)C(C)c2cc1c(O)c(O)c2O (centres unmarked) [C-methyl Pyrogallol[4]arene]
[4]
  color shift where spatula came in contact: white to blue

## CCCC1c2cc(c(O)c(O)c2O)C(CCC)c2cc(c(O)c(O)c2O)C(CCC)c2cc(c(O)c(O)c2O)C(CCC)c2cc1c(O)c(O)c2O (centres unmarked) [C-propyl pyrogallol[4]arene]
[6]; BaCl2.2H2O added
  colour of colloid: pink
[6]; CaCl2 added
  colour of colloid: pink
[6]; Cr(III)Cl3 added
  colour of colloid: green
[6]; Cu(I)Cl added
  colour of colloid: brown
[6]; Fe(III)Cl3 added
  colour of colloid: grey
[6]; MgCl2 added
  colour of colloid: pink
[6]; MnCl2 added
  colour of colloid: salmon
[6]; NaCl added
  colour of colloid: unchanged
[6]; NiCl2 added
  colour of colloid: salmon
[6]; ZnCl2 added
  colour of colloid: light brown
[4]
  color shift where spatula came in contact: white to blue
[7]; chelate with PbCl2, 80° C
  stability of chelate: stable and undissolved
[7]; chelate with a variety of metals, 80° C
  stability of chelate: undissolved
other
  solubility in water: only slightly soluble

Reference: patent publication US20230168203A9, “Pyrogallarene Chelating and Sequestering Agents” (Kinsey Spiel, priority 2018, published 2023)
